Experimental data: PubChem BioAssay AID1918954 (Molecular Pharmacology Branch, DTP, NCI, 2023)

Tested on: MDA-MB-468 complex spheroids with HUVEC/MSC, viability
Test: Anticancer human tumor MDA-MB-468 cell line growth inhibition;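 also: spheroids exposed to agents for seven days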;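 as to viability, T/C: 100% = DMSO vehicle control viability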
Settings: for IC50: curve of first compound; for viability, T/C: stronger effect = lower value
Summary of the method: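 Drug combinations with the LSD1 inhibitor iadademstat tested on tumor cells co-cultured as spheroids with endothelial cells and mesenchymal stem cells. Concentrations descended in half-log increments from clinical Cmax or 10 microM.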

[1] = second compound 0.1 µM, first compound 0.0316 µM
[2] = second compound 0.1 µM, first compound 0.1 µM
[3] = second compound 0.1 µM, first compound 0.316 µM
[4] = second compound 0.1 µM, first compound 1 µM
[5] = second compound 0.1 µM, first compound 3.16 µM
[6] = second compound 0.1 µM, first compound 10 µM
[7] = second compound 0.316 µM, first compound 0.0316 µM
[8] = second compound 0.316 µM, first compound 0.1 µM
[9] = second compound 0.316 µM, first compound 0.316 µM
[10] = second compound 0.316 µM, first compound 1 µM
[11] = second compound 0.316 µM, first compound 3.16 µM
[12] = second compound 0.316 µM, first compound 10 µM
[13] = second compound 1 µM, first compound 0.0316 µM
[14] = second compound 1 µM, first compound 0.1 µM
[15] = second compound 1 µM, first compound 0.316 µM
[16] = second compound 1 µM, first compound 1 µM
[17] = second compound 1 µM, first compound 3.16 µM
[18] = second compound 1 µM, first compound 10 µM
[19] = second compound 3.16 µM, first compound 0.0316 µM
[20] = second compound 3.16 µM, first compound 0.1 µM
[21] = second compound 3.16 µM, first compound 0.316 µM
[22] = second compound 3.16 µM, first compound 1 µM
[23] = second compound 3.16 µM, first compound 3.16 µM
[24] = second compound 3.16 µM, first compound 10 µM
[25] = second compound 10 µM, first compound 0.0316 µM
[26] = second compound 10 µM, first compound 0.1 µM
[27] = second compound 10 µM, first compound 0.316 µM
[28] = second compound 10 µM, first compound 1 µM
[29] = second compound 10 µM, first compound 3.16 µM
[30] = second compound 10 µM, first compound 10 µM
[31] = second compound 0.1 µM, first compound 0.00316 µM
[32] = second compound 0.1 µM, first compound 0.01 µM
[33] = second compound 0.316 µM, first compound 0.00316 µM
[34] = second compound 0.316 µM, first compound 0.01 µM
[35] = second compound 1 µM, first compound 0.00316 µM
[36] = second compound 1 µM, first compound 0.01 µM
[37] = second compound 3.16 µM, first compound 0.00316 µM
[38] = second compound 3.16 µM, first compound 0.01 µM
[39] = second compound 10 µM, first compound 0.00316 µM
[40] = second compound 10 µM, first compound 0.01 µM

Compound	IC50 (second compound 0.1 µM) [nM]	IC50 (second compound 0.316 µM) [nM]	IC50 (second compound 1 µM) [nM]	IC50 (second compound 3.16 µM) [nM]	IC50 (second compound 10 µM) [nM]	viability, T/C [1] [%]	viability, T/C [2] [%]	viability, T/C [3] [%]	viability, T/C [4] [%]	viability, T/C [7] [%]	viability, T/C [8] [%]	viability, T/C [9] [%]	viability, T/C [10] [%]	viability, T/C [13] [%]	viability, T/C [14] [%]	viability, T/C [15] [%]	viability, T/C [16] [%]	viability, T/C [19] [%]	viability, T/C [20] [%]	viability, T/C [21] [%]	further results
CC(C)c1c(-c2ccccc2)nc2c(C#N)c[nH]n2c1=O + NC1CC1c1ccc(-c2cccc(O)c2)cc1	> 10000	> 10000	> 10000	> 10000	> 10000	91.7	89.1	94.4	96	89.2	82.6	92.5	91.4	89.1	88	86.7	102	102	83.5	87.6	viability, T/C [5]: 96.7%; viability, T/C [6]: 84.1%; viability, T/C [11]: 89.4%; viability, T/C [12]: 87.9%; viability, T/C [17]: 89.7%; viability, T/C [18]: 79.5%; viability, T/C [22]: 88.2%; viability, T/C [23]: 81.3%; viability, T/C [24]: 74.7%; viability, T/C [25]: 66.7%; viability, T/C [26]: 67%; viability, T/C [27]: 59.3%; viability, T/C [28]: 57.2%; viability, T/C [29]: 67.1%; viability, T/C [30]: 49.4%
CC1COCCN1c1cc(-c2ccnn2C)c2ccnc(-c3ccn[nH]3)c2n1 (stereo not given) + NC1CC1c1ccc(-c2cccc(O)c2)cc1	< 3.16	< 3.16	< 3.16	< 3.16	< 3.16	16.7	7.91	5.23	2.24	17	7.28	4.97	2.27	15.5	7.91	5.09	2.01	12.3	7.5	5.19	viability, T/C [31]: 40%; viability, T/C [32]: 30.1%; viability, T/C [33]: 37.9%; viability, T/C [34]: 27.4%; viability, T/C [35]: 29.2%; viability, T/C [36]: 28%; viability, T/C [37]: 27.4%; viability, T/C [38]: 22.4%; viability, T/C [22]: 2.2%; viability, T/C [39]: 20.3%; viability, T/C [40]: 17.1%; viability, T/C [25]: 10.4%; viability, T/C [26]: 6.9%; viability, T/C [27]: 5.95%; viability, T/C [28]: 2.01%
COc1ccc([C@@H](O)c2cc(-c3ncnc4cc(N5CCOCC5)ccc34)c(F)cc2Cl)nn1 + NC1CC1c1ccc(-c2cccc(O)c2)cc1	878	876	720	701	228	113	103	69.1	47.4	107	82.3	69.8	52.8	109	109	71.9	39.6	102	87.8	73.4	viability, T/C [5]: 26.1%; viability, T/C [6]: 6.17%; viability, T/C [11]: 25.9%; viability, T/C [12]: 5.99%; viability, T/C [17]: 21%; viability, T/C [18]: 5.38%; viability, T/C [22]: 37.2%; viability, T/C [23]: 21.5%; viability, T/C [24]: 4.59%; viability, T/C [25]: 69.2%; viability, T/C [26]: 59.8%; viability, T/C [27]: 45.1%; viability, T/C [28]: 33.2%; viability, T/C [29]: 20.1%; viability, T/C [30]: 2.86%
O=C(C=Cn1cnc(-c2cc(C(F)(F)F)cc(C(F)(F)F)c2)n1)NNc1cnccn1 + NC1CC1c1ccc(-c2cccc(O)c2)cc1	< 3.16	< 3.16	< 3.16	< 3.16	< 3.16	20.7	3.44	1.7	0.86	19.6	3.54	1.34	0.96	18.1	3.32	1.45	0.94	19.7	3.27	1.83	viability, T/C [31]: 38.1%; viability, T/C [32]: 30.3%; viability, T/C [33]: 36.9%; viability, T/C [34]: 31%; viability, T/C [35]: 38.5%; viability, T/C [36]: 28.9%; viability, T/C [37]: 33.8%; viability, T/C [38]: 34.2%; viability, T/C [22]: 1.13%; viability, T/C [39]: 31%; viability, T/C [40]: 28.9%; viability, T/C [25]: 18.3%; viability, T/C [26]: 4.7%; viability, T/C [27]: 2.04%; viability, T/C [28]: 1.62%
